Measurements as given in patent US8629242B2, “Methods of inhibiting calcineurin with ApoE analogs” (Cognosci, Inc., priority 2007, dated 2014).

How the values were obtained:
calcineurin (PP2B) = molecular target: T1, calcineurin (PP2B) (Homo sapiens, UniProt Q08209); test: Immunoprecipitation with biotin-COG 133 conjugate, blot probed for calcineurin; format: binding; conditions: human brain lysate or primary glial culture; biotin-COG 133 bead conjugate
T1 construct: from tissue; host or cells: human brain lysate
Description: FIG. 14. ApoE analogs bind directly to calcineurin and inhibit its activity. […] (B) Immunoprecipitation of human brain lysate with a biotin-COG 133 conjugate. Lane 1=markers; lane 2=clear bead; lane 3=biotin-COG 133 bead conjugate; and lane 4=10 μg lysate. (C) Immunoprecipitation of different glial cultures with a biotin-COG 133 conjugate. Lane 1=markers; lane 2=astrocyte; lane 3=microglia; and lane 4=oligodendrocyte precursor cells (OPC). Blots in B and C were probed for calcineurin (PP2B).
Calcineurin activity was measured in a cell-free in vitro assay in the presence of various concentrations of COG 133 (SEQ ID NO: 1), COG 112 (SEQ ID NO: 5), COG 68 (SEQ ID NO: 7), COG 125 (Ac-AS(Aib)LRKL(Aib)KR—COOH; SEQ ID NO: 8), or antennapedia (antp), the prefix peptide for COG 112. […] Using a BioMol Calcineurin Phosphatase Activity Kit (Cat. #AK-804), the assay was conducted according to manufacturer's instructions. […] This inhibition of calcineurin activity by ApoE analogs is mediated by a direct interaction of the ApoE analog with the phosphatase.

[1] = test system: 175 kdyn contusive spinal cord injury; test: Contusive spinal cord injury; format: in vivo, Sprague-Dawley rats; conditions: 1 mg/kg
Description: FIG. 12. COG 112 reduces the size of the lesion in white matter after spinal cord injury by inhibition of microglia activation. Rats received 175 kdyn contusive spinal cord injury and subsequent treatment with saline or COG 112 starting immediately after injury for 1 week. The injured area and spared white matter from the injured spinal cord were evaluated and quantified by luxol fast blue (LFB) staining area (top left panel). Activation of microglia was examined by staining adjacent sections with an ED1 antibody (bottom left panel). […] Scale bar=1000 μm. Similar to MS, spinal cord injury (SCI) is another devastating neurological disorder manifested as massive demyelination in the white matter of the spinal cord and extensive microglial activation surrounding the injured site. To examine the therapeutic effect of ApoE analogs on spinal cord injury, COG 112 (SEQ ID NO: 5) was administered to rats immediately after a contusive spinal cord injury. […] The second dose of COG 112 or vehicle was given i.v. 5 hours later followed by daily i.p. doses for 7 days. The animals were sacrificed on day 7 and the spinal cord spanning the injured site was subjected to histological examination. The injured area and spared white matter of the spinal cord were evaluated by Luxol Fast blue (LFB) staining. Activation of microglia was examined by staining adjacent sections with an antibody to ED1. […] Most impressively, about 50% of spared tissue remained at the epicenter of COG 112-treated animals, while only 15% remained in control animals. […] The microglia surrounding the injured spinal cord were robustly activated as shown by ED1-immunoreactivity 7 days after contusion (FIG. 12, bottom panels).

[2] = test system: NFAT translocation in BV2 cells; test: LPS-induced NFAT translocation in BV2 cells; format: cell-based, murine; conditions: 2 μM, LPS 10 ng/mL, 15 min
Source text: FIG. 15. ApoE analog inhibits LPS-induced NFAT translocation. Murine microglial cell line, BV2 cells were stimulated with LPS in the presence or absence of COG 112. NFAT (green signal) and nuclear label (red signal). (A) Untreated cultures; (B) LPS-treated cultures; (C) LPS+COG 112-treated cultures; (D) NFAT translocation was quantified by the fluorescence intensity of green fluorescence in the nucleus defined by yellow area.
Calcineurin dephosphorylates the transcription factor NFAT, which leads to its activation and translocation to the nucleus. Activation of calcineurin and subsequent activation of NFAT is induced by inflammatory stimuli. To further examine the effect of ApoE analogs on calcineurin signaling, murine microglial cell line, BV2 cells were stimulated with LPS (10 ng/mL) in the absence and presence of COG 112 (2 μM). After incubation for 15 min at 37° C., the cells were washed and fixed with 4% formaldehyde. After staining with 1/100 anti-NFAT antibody coupled with Alexaflour and then counterstained with hoescht nuclear dye, NFAT translocation was quantified by the fluorescence intensity of Alexaflour in the nucleus.

[3] = test system: cuprizone-induced demyelination in corpus callosum; test: Cuprizone-induced demyelination model; format: in vivo, C57BL/6J male mice
Description: FIG. 6. COG 112 promotes remyelination of the corpus callosum in a cuprizone model of demyelination. C57BL/6J male mice were fed with 0.2% cuprizone-containing diet for 5 weeks to induce complete demyelination in the corpus callosum. Starting from week 6, cuprizone was removed and the animals were treated with either vehicle or COG 112 (1 mg/kg) by i.p. injection three times a week for 4 weeks. Myelination in corpus callosum was evaluated on a scale from 0 to 3 after staining brain sections with Luxol Fast Blue (LFB). The data were collected from 4 animals of each group and 2 sections from each animal. A non-parametric Mann-Whitney test was used to compare differences between groups. Panels A and B (100×) are representative pictures of LFB-stained sections from vehicle- and COG 112-treated animals, respectively. Panels C and D (400×) are representative sections labeled with anti-GST-π-FITC antibody (marker for mature oligodendrocytes) from vehicle- and COG 112-treated animals, respectively.
In an EAE model, treatment with COG 112 reduced demyelination in the spinal cord (Example 1). Therefore, we tested the effect of COG peptides on remyelination in a cuprizone-induced demyelination model. C57BL/6J male mice were fed with 0.2% cuprizone-containing mouse chow for 5 weeks to cause demyelination. […]

Compound	binding of calcineurin (PP2B) in immunoprecipitates (calcineurin (PP2B))	ED1 immunoreactive area in the injured spinal cord (microglia activation) ([1]; 7 days after contusion)	spared tissue remaining at the epicenter ([1]; day 7, control animals 15%)	percentage of spared white matter to total spinal cord area ([1]; day 7, epicenter to 2.4 mm rostral or caudal, vs saline)	NFAT translocation to the nucleus [2]	LFB staining of myelin within corpus callosum ([3]; 1 mg/kg i.p. three times a week for 4 weeks after 5 weeks cuprizone)	GST-π+ cells (mature oligodendrocytes) within the corpus callosum ([3]; 1 mg/kg i.p. three times a week for 4 weeks, vs vehicle)
CC(=O)N[C@@H](CC(C)C)C(=O)N[C@@H](CCCNC(=N)N)C(=O)N[C@H](C(=O)N[C@@H](CCCNC(=N)N)C(=O)N[C@@H](CC(C)C)C(=O)N[C@@H](C)C(=O)N[C@@H](CO)C(=O)N[C@@H](Cc1c[nH]cn1)C(=O)N[C@@H](CC(C)C)C(=O)N[C@@H](CCCNC(=N)N)C(=O)N[C@@H](CCCCN)C(=O)N[C@@H](CC(C)C)C(=O)N[C@@H](CCCNC(=N)N)C(=O)N[C@@H](CCCCN)C(=O)N[C@@H](CCCNC(=N)N)C(=O)N[C@@H](CC(C)C)C(=O)N[C@@H](CC(C)C)C(N)=O)C(C)C [COG 133]	bound	–	–	–	–	–	–
Ac-RQIKIWFQNRRMKWKKCLRVRLASHLRKLRKRLL-NH2 [COG 112]	–	dramatically decreased	about 50%	significantly higher	prevented NFAT translocation	significantly increased	Significantly more
